Experiment [1] deals with SNU-638. The experiment in a line: Cell viability / antiproliferative assay (WST-8), SNU-638. The format is cell-based, human. The note with it: Homo sapiens, SNU-638, 72 h, read-out: SNU-638 IC50. For orientation: Tetrazolium assays rely on reduction of a dye to a coloured formazan, in cell work by metabolically active cells.
Protocol: (§2) c-MET overexpressing human gastric cancer cell lines [MKN45] and [SNU638] were cultured in RPMI medium with 10% fetal bovine serum, penicillin (100U/ml), and streptomycin (100mg/ml), and c-MET exon 14 skipping mutant human gastric cancer cell lines [Hs746T] were cultured in DMEM media. The c-MET overexpressing human lung cancer cell line EBC-1 was cultured in MEM media with the addition of 10% fetal bovine serum, penicillin (100U/ml), and streptomycin (100mg/ml). […] The compound synthesized in accordance with the present invention was prepared with a raw material solution of 10 mM dissolved in DMSO (dimethyl sulfoxide), and was sequentially diluted and processed.
(§3) In order to observe the inhibitory activity on cell growth, cells were dispensed in a 96-well plate at a concentration of 5,000 cells/well, and then treated with the compound prepared at various concentrations for 72 hours. The viability of the cells was calculated using GraphicPad Prism 8.0 software by adding 10 ml per well of WST-8 (water soluble tetrazolium salt) sample, which reacts with dehydrogenase present in the electron transport system of mitochondria to produce formazon, incubated for 2 hours, and measured absorbance at 450 nm.
For experiment [2], the target named is T1, c-MET (Homo sapiens, UniProt P08581, DEL963-1009).
T1 construct: assess the resolution of the compound of the present invention for c-MET expressed in cells; endogenous in cells; host or cells: Hs746T (human gastric cancer)
T1 sequence (P08581 with tags, fused parts or gaps DEL963-1009): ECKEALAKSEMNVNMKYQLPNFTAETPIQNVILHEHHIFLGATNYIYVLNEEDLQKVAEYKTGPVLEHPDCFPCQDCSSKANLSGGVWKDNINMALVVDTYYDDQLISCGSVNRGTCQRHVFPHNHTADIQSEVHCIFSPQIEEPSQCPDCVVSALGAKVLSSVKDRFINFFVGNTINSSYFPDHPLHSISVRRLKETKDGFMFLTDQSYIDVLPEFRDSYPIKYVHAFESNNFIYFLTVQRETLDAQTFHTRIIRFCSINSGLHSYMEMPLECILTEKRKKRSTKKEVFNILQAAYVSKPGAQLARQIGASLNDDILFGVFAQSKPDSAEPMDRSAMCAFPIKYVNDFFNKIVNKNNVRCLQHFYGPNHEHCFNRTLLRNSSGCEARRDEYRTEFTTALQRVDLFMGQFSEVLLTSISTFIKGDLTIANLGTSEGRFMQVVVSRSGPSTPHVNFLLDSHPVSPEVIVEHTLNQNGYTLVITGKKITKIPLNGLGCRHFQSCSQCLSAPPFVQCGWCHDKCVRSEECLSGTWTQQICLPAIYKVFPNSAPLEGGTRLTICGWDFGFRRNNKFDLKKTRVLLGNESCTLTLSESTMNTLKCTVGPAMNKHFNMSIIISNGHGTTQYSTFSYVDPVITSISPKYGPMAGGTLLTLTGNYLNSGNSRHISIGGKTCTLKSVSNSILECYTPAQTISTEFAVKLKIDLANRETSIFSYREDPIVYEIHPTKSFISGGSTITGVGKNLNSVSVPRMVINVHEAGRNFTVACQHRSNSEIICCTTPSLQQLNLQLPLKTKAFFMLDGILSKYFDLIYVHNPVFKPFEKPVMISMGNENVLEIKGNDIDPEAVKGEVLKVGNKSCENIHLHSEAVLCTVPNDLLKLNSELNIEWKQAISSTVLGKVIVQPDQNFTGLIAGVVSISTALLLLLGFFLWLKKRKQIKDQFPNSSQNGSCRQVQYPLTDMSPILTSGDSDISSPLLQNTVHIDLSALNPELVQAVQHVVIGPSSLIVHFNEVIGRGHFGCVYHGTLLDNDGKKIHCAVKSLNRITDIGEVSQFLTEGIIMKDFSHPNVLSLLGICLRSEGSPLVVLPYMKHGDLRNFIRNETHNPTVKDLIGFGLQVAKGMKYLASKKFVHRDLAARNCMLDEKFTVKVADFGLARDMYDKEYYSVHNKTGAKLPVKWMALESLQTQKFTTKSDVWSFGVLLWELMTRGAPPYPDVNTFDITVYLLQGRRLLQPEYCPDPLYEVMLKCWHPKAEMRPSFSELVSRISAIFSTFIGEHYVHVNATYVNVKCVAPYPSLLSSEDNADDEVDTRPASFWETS
T1 sequence (P08581 25-307 partner limits assumed): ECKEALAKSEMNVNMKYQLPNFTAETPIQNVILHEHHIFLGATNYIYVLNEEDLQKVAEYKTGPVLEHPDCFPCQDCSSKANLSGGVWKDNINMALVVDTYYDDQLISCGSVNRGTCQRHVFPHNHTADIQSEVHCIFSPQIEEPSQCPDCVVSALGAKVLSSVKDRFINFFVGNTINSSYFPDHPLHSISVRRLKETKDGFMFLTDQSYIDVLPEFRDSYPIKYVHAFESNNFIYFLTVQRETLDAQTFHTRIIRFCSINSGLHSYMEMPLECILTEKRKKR
In words: c-MET protein degradation (Simple Western), Hs746T. It is filed as cell-based. Particulars: c-MET exon 14 skipping mutant gastric cancer cell line Hs746T, treated 24 hours; Table 2. On the procedure: (§1) In order to assess the resolution of the compound of the present invention for c-MET expressed in cells, cells were dispensed in a 12-well plate at a concentration of 2 × 10^5 cells/well, and then gastric cancer cell lines were treated with samples for 24 hours and lung cancer cell lines were treated for 48 hours. Cell lysates were collected using a scraper on ice, centrifuged at 4°C15,000 rpm for 30 min to obtain a protein-containing supernatant. Protein expression was then measured using the Simple Western Automated Western Blot System Abby instrument using 3 µg of protein for each sample. SDS and heat-induced denaturation proteins were separated by molecular weight, attached to capillary, reacted with anti-c-MET or anti-GAPDH antibodies, which are primary antibodies, and then reacted with HRP-conjugated secondary antibodies, and analyzed the protein expression signal with compass software. Protein expression was normalized based on the expression value of GAPDH, and protein development in each sample was measured as a percentage (%) based on 100% of samples treated with 0.1% DMSO carriers, and DC50 (concentration of a compound where 50% protein inhibition is achieved) was calculated from the change in protein expression amount due to compound treatment.

In experiment [3] the target is T2, c-MET (Homo sapiens, UniProt P08581). In words: c-MET protein degradation (Simple Western), EBC-1. It is filed as cell-based. Also noted: assess the resolution of the compound of the present invention for c-MET expressed in cells; endogenous in cells; host or cells: EBC-1 (human lung cancer). The note with it: c-MET overexpressing lung cancer cell line EBC-1, treated 48 hours; Table 2. On the procedure: as §1
T2 sequence (P08581 25-1390): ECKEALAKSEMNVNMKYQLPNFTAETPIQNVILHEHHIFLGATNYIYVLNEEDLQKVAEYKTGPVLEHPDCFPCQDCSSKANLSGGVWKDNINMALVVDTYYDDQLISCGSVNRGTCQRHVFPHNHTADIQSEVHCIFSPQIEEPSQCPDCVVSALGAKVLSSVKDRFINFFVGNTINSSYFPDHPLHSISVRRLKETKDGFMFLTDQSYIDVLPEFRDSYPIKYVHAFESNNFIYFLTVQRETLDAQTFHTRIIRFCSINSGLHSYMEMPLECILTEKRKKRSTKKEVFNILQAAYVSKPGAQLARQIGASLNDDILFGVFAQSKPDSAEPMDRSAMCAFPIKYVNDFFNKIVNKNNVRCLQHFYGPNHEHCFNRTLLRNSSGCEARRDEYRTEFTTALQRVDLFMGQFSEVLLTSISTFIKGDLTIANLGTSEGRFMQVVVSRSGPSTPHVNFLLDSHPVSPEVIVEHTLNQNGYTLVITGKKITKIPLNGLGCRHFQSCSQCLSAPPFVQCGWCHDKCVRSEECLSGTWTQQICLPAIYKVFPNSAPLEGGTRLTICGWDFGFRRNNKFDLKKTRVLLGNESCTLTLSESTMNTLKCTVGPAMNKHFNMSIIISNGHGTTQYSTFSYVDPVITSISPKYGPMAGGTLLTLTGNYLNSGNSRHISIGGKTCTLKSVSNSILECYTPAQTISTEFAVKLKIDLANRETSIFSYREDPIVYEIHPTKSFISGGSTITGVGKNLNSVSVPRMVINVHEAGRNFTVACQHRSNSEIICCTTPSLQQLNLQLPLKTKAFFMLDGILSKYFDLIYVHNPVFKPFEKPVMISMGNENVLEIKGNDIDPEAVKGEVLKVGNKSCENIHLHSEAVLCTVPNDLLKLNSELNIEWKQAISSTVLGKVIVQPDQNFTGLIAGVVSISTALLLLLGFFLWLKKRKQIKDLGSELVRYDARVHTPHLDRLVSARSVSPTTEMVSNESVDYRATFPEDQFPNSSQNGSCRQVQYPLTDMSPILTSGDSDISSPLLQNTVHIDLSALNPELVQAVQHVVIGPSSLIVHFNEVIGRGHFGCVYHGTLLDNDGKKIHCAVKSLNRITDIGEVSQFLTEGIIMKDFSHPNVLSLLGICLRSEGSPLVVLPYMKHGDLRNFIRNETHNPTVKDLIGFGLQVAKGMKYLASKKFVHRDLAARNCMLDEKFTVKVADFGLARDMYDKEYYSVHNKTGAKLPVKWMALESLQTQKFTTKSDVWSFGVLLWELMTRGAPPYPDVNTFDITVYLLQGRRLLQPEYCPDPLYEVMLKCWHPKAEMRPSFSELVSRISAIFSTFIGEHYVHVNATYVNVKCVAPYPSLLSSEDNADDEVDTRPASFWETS

Experiment [4] deals with T2, c-MET. In words: c-MET protein degradation (Simple Western), SNU-638. Particulars: c-MET overexpressing gastric cancer cell line SNU-638, treated 24 hours; Table 2. Details: assess the resolution of the compound of the present invention for c-MET expressed in cells; endogenous in cells; host or cells: SNU638 (human gastric cancer). The format is cell-based. The procedure: as §1

The test system of experiment [5] is EBC-1. The experiment in a line: Cell viability / antiproliferative assay (WST-8), EBC-1. The note with it: Homo sapiens, EBC-1, 72 h, read-out: EBC-1 IC50. The format is cell-based, human.
Protocol: as §2, §3
The test system of experiment [6] is Hs746T. In words: Cell viability / antiproliferative assay (WST-8), Hs746T. It is filed as cell-based. Particulars: Homo sapiens, Hs746T cells, 72 hours, Table 2.
Protocol: as §2, §3
In experiment [7] the target is T2, c-MET. In words: c-MET protein degradation (Simple Western), MKN-45. Also noted: assess the resolution of the compound of the present invention for c-MET expressed in cells; endogenous in cells; host or cells: MKN45 (human gastric cancer). Particulars: c-MET overexpressing gastric cancer cell line MKN-45, treated 24 hours; Table 2. It is filed as cell-based. The method in brief: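 c-MET level, GAPDH-normalized and relative to 0.1% DMSO-treated cells, measured by automated capillary Western (3 µg protein) after compound exposure of 48 h for lung or 24 h for gastric cancer lines; DC50 = concentration giving 50% reduction.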

Experiment [8] has as its system MKN-45. In words: Cell viability / antiproliferative assay (WST-8), MKN-45.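 Note: MKN-45 is a human gastric cancer line overexpressing c-MET, growth inhibition read as WST-8 formazan absorbance at 450 nm after 2 h dye incubation.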 Particulars: Homo sapiens, MKN-45, 72 h, read-out: MKN-45 IC50.

Consider seven compounds from patent EP4624466A1, “DEGRADER FOR DECOMPOSING CMET PROTEIN, AND PHARMACEUTICAL COMPOSITION COMPRISING SAME” (Innocure Therapeutics, Inc., priority 2022, dated 2024).

As for `N#Cc1cccc(-c2ccc(=O)n(Cc3cccc(-c4ncc(N5CCN(CC6CCN(c7ccc(NC8CCC(=O)NC8=O)cc7F)CC6)CC5)cn4)c3)n2)c1` (centres unmarked) [ICT-0001402], the IC50 in experiment [1], in experiment [5] and in experiment [6] was under 100 nM throughout. In addition, the DC50 in experiment [2], in experiment [3] and in experiment [4] was under 100 nM each time.
For the compound `Cc1nn(C2CCC(=O)NC2=O)c(=O)c2ccc(N3CCN(c4ccc(NC(=O)CN5CCC(COc6cnc(-c7cccc(Cn8nc(-c9cccc(C#N)c9)ccc8=O)c7)nc6)CC5)cc4)CC3)cc12` (centres unmarked) [ICT-0001207], the DC50 in experiment [7], in experiment [2], in experiment [3] and in experiment [4] was under 100 nM throughout. Besides, the IC50 (commonly the midpoint of a concentration-inhibition curve) is under 100 nM in experiment [1], under 100 nM in experiment [8], under 100 nM in experiment [5] and 100 to 1000 nM in experiment [6].
On to `Cc1nn(C2CCC(=O)NC2=O)c(=O)c2cc(N3CCN(C(=O)CCN4CCC(COc5cnc(-c6cccc(Cn7nc(-c8cccc(C#N)c8)ccc7=O)c6)nc5)CC4)CC3)ccc12` (centres unmarked) [ICT-0001.225], for which, in experiment [7], the half-maximal degradation concentration (DC50) (as a rule, the midpoint of the concentration-degradation curve) is under 100 nM. Further, the half-inhibitory concentration (IC50) in experiment [8] and in experiment [6] was under 100 nM in each case.
Regarding `Cc1nn(C2CCC(=O)NC2=O)c(=O)c2ccc(N3CCN(CCN4CCC(COc5cnc(-c6cccc(Cn7nc(-c8cccc(C#N)c8)ccc7=O)c6)nc5)CC4)CC3)cc12` (centres unmarked) [ICT-0001277, 3-(1-{[3-(5-{[1-(2-{4-[2-(2,6-dioxopiperidin-3-yl)-4-methyl-1-oxo-1,2-dihydrophthalazine-6-yl]piperazine-1-yl}ethyl)piperidine-4-il]methoxy}pyrimidine-2-yl)phenyl]methyl}6-oxo-1,6-dihydropyridazine-3-yl)benzonitrile], the half-maximal degradation concentration (DC50) in experiment [7], in experiment [2], in experiment [3] and in experiment [4] was under 100 nM each time. Moreover, the IC50 in experiment [1], in experiment [8], in experiment [5] and in experiment [6] was under 100 nM in each case.
Compound `N#Cc1cccc(-c2ccc(=O)n(Cc3cccc(-c4ncc(OCC5CCN(CC(=O)NCCCC#Cc6ccc7c(=O)n(C8CCC(=O)NC8=O)ncc7c6)CC5)cn4)c3)n2)c1` (centres unmarked) [ICT-0001205] had a DC50 in experiment [7] of under 100 nM. In addition, the half-maximal inhibitory concentration (IC50) in experiment [8] is under 100 nM; in experiment [6], 100 to 1000 nM.
As to `Cc1nn(C2CCC(=O)NC2=O)c(=O)c2cc(F)c(N3CCN(CC4CCN(C(=O)CN5CCC(COc6cnc(-c7cccc(Cn8nc(-c9cccc(C#N)c9)ccc8=O)c7)nc6)CC5)CC4)CC3)cc12` (centres unmarked) [ICT-0001204], the half-maximal degradation concentration (DC50) in experiment [7] is under 100 nM. The IC50 in experiment [8] was under 100 nM; in experiment [5], under 100 nM; in experiment [6], 100 to 1000 nM.
For `N#Cc1cccc(-c2ccc(=O)n(Cc3cccc(-c4ncc(OCC5CCN(CCC(=O)N6CCN(c7ccc8c(=O)n(C9CCC(=O)NC9=O)ncc8c7)CC6)CC5)cn4)c3)n2)c1` (centres unmarked) [ICT-0001223], the DC50 in experiment [7] was under 100 nM. The half-inhibitory concentration (IC50) in experiment [8] and in experiment [6] was under 100 nM throughout.
